{"source": "ChEMBL document CHEMBL3621185", "about": "“Progress in the development of fatty acid synthase inhibitors as anticancer targets” (Bioorg Med Chem Lett, 2015)", "key": {"[1]": {"experiment": "Cytotoxicity against human MCF10A cells", "type": "functional, cell-based", "details": "MCF-10A"}, "[2]": {"target": "T1, Fatty acid synthase (Homo sapiens, UniProt P49327)", "T1 sequence (P49327 whole entry)": "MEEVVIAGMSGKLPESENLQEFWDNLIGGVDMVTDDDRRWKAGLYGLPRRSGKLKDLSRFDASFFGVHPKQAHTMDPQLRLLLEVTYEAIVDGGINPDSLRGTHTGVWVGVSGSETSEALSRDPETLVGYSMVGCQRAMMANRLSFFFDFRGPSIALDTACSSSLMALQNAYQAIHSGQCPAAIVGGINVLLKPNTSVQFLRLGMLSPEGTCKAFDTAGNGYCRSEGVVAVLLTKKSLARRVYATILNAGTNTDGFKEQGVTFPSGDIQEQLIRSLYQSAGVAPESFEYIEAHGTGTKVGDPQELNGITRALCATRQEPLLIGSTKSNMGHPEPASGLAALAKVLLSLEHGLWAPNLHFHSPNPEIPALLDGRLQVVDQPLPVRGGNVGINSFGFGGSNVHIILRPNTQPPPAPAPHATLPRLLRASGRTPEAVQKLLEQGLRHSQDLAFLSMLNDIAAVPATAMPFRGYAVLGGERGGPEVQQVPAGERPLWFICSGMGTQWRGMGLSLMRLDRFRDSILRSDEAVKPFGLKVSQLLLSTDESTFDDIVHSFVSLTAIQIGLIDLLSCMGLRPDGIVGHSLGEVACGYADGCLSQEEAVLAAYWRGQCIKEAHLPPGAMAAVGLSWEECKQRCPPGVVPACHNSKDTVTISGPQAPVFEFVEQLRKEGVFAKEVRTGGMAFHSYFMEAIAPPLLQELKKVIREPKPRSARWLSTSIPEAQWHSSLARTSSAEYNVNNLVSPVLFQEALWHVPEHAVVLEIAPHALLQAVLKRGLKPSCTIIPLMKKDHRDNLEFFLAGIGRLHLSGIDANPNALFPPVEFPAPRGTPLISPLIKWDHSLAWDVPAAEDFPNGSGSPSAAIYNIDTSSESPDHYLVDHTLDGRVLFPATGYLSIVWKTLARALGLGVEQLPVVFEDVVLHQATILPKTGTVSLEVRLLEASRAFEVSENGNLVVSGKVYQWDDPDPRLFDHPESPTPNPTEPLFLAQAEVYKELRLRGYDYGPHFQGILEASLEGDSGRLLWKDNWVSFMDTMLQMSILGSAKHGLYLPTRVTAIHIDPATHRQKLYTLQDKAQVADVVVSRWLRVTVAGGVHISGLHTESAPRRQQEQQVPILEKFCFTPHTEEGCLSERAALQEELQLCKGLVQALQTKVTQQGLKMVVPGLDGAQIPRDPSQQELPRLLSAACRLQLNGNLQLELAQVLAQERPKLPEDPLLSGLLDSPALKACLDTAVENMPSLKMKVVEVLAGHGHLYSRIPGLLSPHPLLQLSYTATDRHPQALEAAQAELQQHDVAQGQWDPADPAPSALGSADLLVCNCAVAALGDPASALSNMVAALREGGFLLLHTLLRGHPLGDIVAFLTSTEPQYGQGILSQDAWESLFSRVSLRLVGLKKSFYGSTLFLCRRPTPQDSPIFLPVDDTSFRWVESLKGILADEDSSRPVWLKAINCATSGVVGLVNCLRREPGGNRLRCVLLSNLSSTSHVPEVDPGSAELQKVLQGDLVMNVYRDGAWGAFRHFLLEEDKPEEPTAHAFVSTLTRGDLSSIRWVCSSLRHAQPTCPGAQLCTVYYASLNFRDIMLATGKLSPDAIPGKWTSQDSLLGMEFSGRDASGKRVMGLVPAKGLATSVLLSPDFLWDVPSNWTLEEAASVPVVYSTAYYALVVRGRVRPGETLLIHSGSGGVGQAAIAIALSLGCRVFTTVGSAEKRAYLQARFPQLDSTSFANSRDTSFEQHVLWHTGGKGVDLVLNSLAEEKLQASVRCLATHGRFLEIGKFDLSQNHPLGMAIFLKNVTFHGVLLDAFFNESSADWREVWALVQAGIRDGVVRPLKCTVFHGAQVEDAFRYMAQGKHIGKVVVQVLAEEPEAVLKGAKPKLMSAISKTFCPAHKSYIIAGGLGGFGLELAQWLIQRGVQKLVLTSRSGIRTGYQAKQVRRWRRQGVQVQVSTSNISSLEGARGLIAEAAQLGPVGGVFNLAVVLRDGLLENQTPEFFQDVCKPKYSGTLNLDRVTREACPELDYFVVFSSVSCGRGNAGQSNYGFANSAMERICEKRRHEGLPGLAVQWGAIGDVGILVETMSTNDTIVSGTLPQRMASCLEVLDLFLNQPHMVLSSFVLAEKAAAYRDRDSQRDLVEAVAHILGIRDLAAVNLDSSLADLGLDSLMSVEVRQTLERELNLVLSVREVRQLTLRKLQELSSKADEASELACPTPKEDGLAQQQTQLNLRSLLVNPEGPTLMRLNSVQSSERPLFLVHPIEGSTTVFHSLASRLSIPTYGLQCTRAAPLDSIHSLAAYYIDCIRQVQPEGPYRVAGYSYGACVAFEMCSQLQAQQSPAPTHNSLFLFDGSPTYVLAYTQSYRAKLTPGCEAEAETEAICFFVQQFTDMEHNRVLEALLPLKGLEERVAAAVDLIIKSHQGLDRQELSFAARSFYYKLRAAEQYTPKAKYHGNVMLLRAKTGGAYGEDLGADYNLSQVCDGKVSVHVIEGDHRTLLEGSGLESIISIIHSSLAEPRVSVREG", "experiment": "Inhibition of fatty acid synthase (unknown origin)"}, "[3]": {"system": "A2780", "experiment": "Cytotoxicity against human A2780 cells", "type": "functional, cell-based"}, "[4]": {"target": "T1, Fatty acid synthase", "experiment": "Inhibition of fatty acid synthase KR domain (unknown origin)"}, "[5]": {"experiment": "Cytotoxicity against human PC-3M-luc-C6 cells", "type": "functional, cell-based"}}, "data": [{"compound": "Cc1cc(C)cc(N2C(=O)NC(=O)/C(=C\\c3ccc(-c4ccccc4)o3)C2=O)c1", "values": [{"measurement": "IC50", "setting": "[1]", "value": 24.3, "unit": "µM"}]}, {"compound": "CN(C[C@@H]1CCN(C(=O)C2CC2)C1)C(=O)c1ccc(-c2ccc3[nH]ccc3c2)cc1F", "values": [{"measurement": "IC50", "setting": "[2]", "value": 0.02, "unit": "µM"}]}, {"compound": "O=C(C1CC1)N1CC[C@@H](Cc2n[nH]c(=O)n2-c2ccc(-c3ccc4ccncc4c3)cc2F)C1", "values": [{"measurement": "IC50", "setting": "[2]", "value": 0.003, "unit": "µM"}]}, {"compound": "O=C1COC2(CCN(S(=O)(=O)c3ccc(-c4cccc5cnccc45)cc3)CC2)CN1C1CC1", "values": [{"measurement": "IC50", "setting": "[2]", "value": 0.006, "unit": "µM"}]}, {"compound": "N#Cc1ccc2cc(N3CCN(S(=O)(=O)N4CCC5(CC4)CN(C4CC4)C(=O)CO5)CC3)ccc2c1", "values": [{"measurement": "IC50", "setting": "[2]", "value": 0.01, "unit": "µM"}]}, {"compound": "CC1(C)N=C(c2ccc(-c3c[nH]c4ccccc34)cc2)N(C[C@@H]2CCN(C(=O)C3CC3)C2)C1=O", "values": [{"measurement": "IC50", "setting": "[3]", "value": 0.003, "unit": "µM"}, {"measurement": "IC50", "setting": "[4]", "value": 0.041, "unit": "µM"}, {"measurement": "IC50", "setting": "[5]", "value": 0.008, "unit": "µM"}]}, {"compound": "Cc1ccc(C(=O)N2CCC(c3ccc4nncn4c3)CC2)cc1NC(=O)c1ccc(Cl)nc1", "values": [{"measurement": "IC50", "setting": "[3]", "value": 0.041, "unit": "µM"}, {"measurement": "IC50", "setting": "[4]", "value": 0.093, "unit": "µM"}, {"measurement": "IC50", "setting": "[5]", "value": 0.035, "unit": "µM"}]}, {"compound": "O=C(C1CC1)N1CCC(Cn2cnnc2-c2ccc(-c3ccc4[nH]ncc4c3)cc2)C1", "note": "(single isomer, unassigned)", "values": [{"measurement": "IC50", "setting": "[2]", "value": 0.013, "unit": "µM"}]}]}
